The values that follow come from US10851112B2, “Anti-HCMV virus compound” (MEDSHINE DISCOVERY INC., priority 2016, dated 2020).

SMILES strings stand for the structures.

Series [1] has as its system US3-6-EGFP-HCMV-AD169 viruses. Put plainly: Fluorescence decay assay against human cytomegalovirus. Format: cell-based, human cytomegalovirus (HCMV). The conditions noted are these: Human betaherpesvirus 5, AD169, MRC5, 240 h. As for the experimental part: Fluorescence Decay Assay Against Human Cytomegalovirus
The antiviral activity of the compound against human cytomegalovirus (HCMV) was evaluated by determining the half maximal effective concentration (EC50) of the compound. The HCMV used in this assay was inserted with enhanced green fluorescent protein (EGFP) by gene recombination, so the viral replication in cells could be reflected by the expression level of GFP. The inhibitory activity of the compound on HCMV GFP expression was evaluated by determining the fluorescence intensity in the wells of different concentrations of the compound using a high content cell analysis platform Acumen eX3.
Fluorescence Decay Assay Against HCMV
MRC5 cells were inoculated into a black 96-well cell culture plate at a density of 20,000 cells per well. The plate was incubated overnight in a 37° C., 5% CO2 incubator. US3-6-EGFP-HCMV-AD169 viruses were added to the cell culture well at a certain MOI (0.003-0.1) and the plate was incubated for 3 hours in a 37° C., 5% CO2 incubator. After adsorption of viruses, the medium containing viruses was aspirated and 200 μL of cell culture medium containing different concentrations of the compound (4-fold dilution, 6 test concentrations) was added. The final concentration of DMSO in the medium was 1%. Virus control wells (with DMSO added, but no compound was added) and inhibition control wells (with a high concentration of control compound added) were set. The cell plate was incubated for 10 days in a 37° C., 5% CO2 incubator and the liquid was renewed on the 4th day and 7th day. After 10 days of culture, the fluorescence intensity was determined using a high content cell analysis platform Acumen eX3 (TTP LabTech). The original data was used for calculating the antiviral activity of the compound.
The inhibition % was imported into GraphPad Prism software for data processing to give a corresponding dose-response curve for the compound and the EC50 of the test compound was obtained.

For series [2], the system named is HCMV viruses (strain: GFP-AD169). Put plainly: Human cytomegalovirus (HCMV) transplantation model in mouse. Format: in vivo. To be noted: NOD SCID mice, oral 8 mg/kg once a day, 1st to 9th day, plaque detection in gelatin sponge. As for the experimental part:
Human Cytomegalovirus (HCMV) Transplantation Model in Mouse
A gelatin sponge containing HCMV was transplanted into mice. After 9 days of continuous administration, the gelatin sponge was collected for plaque detection. The anti-HCMV effect of the compound in the model was evaluated by determining the amount of HCMV in the gelatin sponge.
The animals selected for the experiment were NOD SCID mice (purchased from Shanghai Slac Laboratory Animal Co., Ltd.), 5 weeks, male, 5 animals per group. The day when the mice were transplanted with gelatin sponge was set to be day 0. Human foreskin fibroblasts (HFF, MOI=0.03) were previously infected with HCMV viruses (strain: GFP-AD169). The HMV cells infected with HCMV were added to a 1 cm^2 gelatin sponge for incubation. Animals were anesthetized by intraperitoneal injection of pentobarbital sodium at a dose of 75 mg/kg (10 mL/kg). After the animals entered deep anesthesia, the prepared gelatin sponge was subcutaneously transplanted into the back of the mice. From 1st day to 9th day, the mice were orally administered with the test compound at a dose of 8 mg/kg (10 mL/kg) once a day. At 4 hours after the administration on the 9th day, the gelatin sponge was taken out and digested. The plaque was detected.

A short description of series [3]: Plasma protein binding rate test, equilibrium dialysis, SD rat plasma. The format is in vitro ADME. The conditions noted are these: rat plasma (R), equilibrium dialysis 37° C. 4 hours, read-out: plasma protein binding PPB bound (%) (converted). As for the experimental part: (§1) Plasma Protein Binding Rate Test of the Compound
(§2) The protein binding rate of the test compound in CD-1 mice, SD rats, and human plasma was evaluated by equilibrium dialysis. The test compound was diluted into the plasma of the above three species respectively to prepare a sample with a final concentration of 2 μM. The sample was added to a 96-well equilibrium dialysis device, and dialyzed using a phosphate buffer solution at 37° C. for 4 hours. Warfarin was used as a control compound in the experiment. The concentration of the test compound and warfarin in the plasma and the buffer was determined by LC-MS/MS.

The nature of series [4]: Plasma protein binding rate test, equilibrium dialysis, CD-1 mouse plasma. Format: in vitro ADME. The conditions noted are these: mouse plasma (M), equilibrium dialysis 37° C. 4 hours, read-out: plasma protein binding PPB bound (%) (converted). As for the experimental part: as §1, §2
Series [5] in a line: Plasma protein binding rate test, equilibrium dialysis, human plasma. Format: in vitro ADME. To be noted: equilibrium dialysis 37° C. 4 hours, read-out: plasma protein binding PPB bound (%) (converted). As for the experimental part:
as §1, §2

Take `COc1cccc(N2CCN(C3=Nc4ccsc4[C@H](CC(=O)O)N3c3cc(C(F)(F)F)ccc3OC)C[C@H]2C)c1` (single isomer, unassigned) [WX-136]: in series [1], the EC50 turned out to be 0.17 nM. For the same molecule, the “decrease in HCMV viral load” value in series [2] is reported as 2.33 log PFU/mL.
On to `COc1cc(N2CCN(C3=Nc4ccsc4[C@H](CC(=O)O)N3c3cc(C(F)(F)F)ccc3OC)C[C@H]2C)ccn1` (single isomer, unassigned) [WX-141], for which the values for the fraction unbound at 4 h, 2 μM in series [3], in series [4] and in series [5] were 0.061, 0.017 and 0.06, respectively. In series [1], the EC50 was 0.2 nM. Further, the “decrease in HCMV viral load” value in series [2] came to 2.38 log PFU/mL.
With `COc1cc(N2CCN(C3=Nc4c(csc4F)[C@H](CC(=O)O)N3c3cc(C(F)(F)F)ccc3OC)C[C@H]2C)ncn1` (single isomer, unassigned) [WX-149], the fraction unbound at 4 h, 2 μM in series [3] is 0.017; in series [4], 0.002; in series [5] it was 0.024. Besides, the EC50 in series [1] came to 0.67 nM.
In the case of `COc1cc(N2CCN(C3=Nc4cscc4[C@H](CC(=O)O)N3c3cc(C(F)(F)F)ccc3OC)C[C@H]2C)ccn1` (single isomer, unassigned) [WX-151], the fraction unbound at 4 h, 2 μM in series [3] is 0.05; in series [4], 0.011; in series [5], 0.047. Further, the EC50 in series [1] was 0.503 nM. Further, in series [2], the “decrease in HCMV viral load” value came out at 2.30 log PFU/mL.
For the molecule `COc1cc(N2CCN(C3=Nc4c(C)csc4[C@H](CC(=O)O)N3c3cc(C(F)(F)F)ccc3OC)C[C@H]2C)ccn1` (single isomer, unassigned) [WX-153], the fraction unbound at 4 h, 2 μM in series [3] is 0.02; in series [4], 0.011; in series [5], 0.019. Also, the EC50 in series [1] was found to be 0.26 nM.
Taken in the same sequence, the figures for `COc1cc(N2[C@H](C)CN(C3=Nc4ccsc4[C@H](CC(=O)O)N3c3cc(C(F)(F)F)ccc3OC)C[C@@H]2C)ccn1` (single isomer, unassigned) [WX-161] were 0.023, 0.004, 0.02 and 0.317 nM.
